Reference: ChEMBL document CHEMBL1137190, “Synthesis and KCNQ2 opener activity of N-(1-benzo[1,3]dioxol-5-yl-ethyl, N-[1-(2,3-dihydro-benzofuran-5-yl)-ethyl, and N-[1-(2,3-dihydro-1H-indol-5-yl)-ethyl acrylamides” (Bioorg Med Chem Lett, 2004)
pEC50: −log10 of the molar value.

Test system: HEK293
Assay: Effective concentration against whole-cell patch clamp from […] HEK293 cells
Type: functional, cell-based, Homo sapiens

Row | SMILES | pEC50 (Homo sapiens, HEK293) | pEC50 (hek293)
1 | C[C@H](NC(=O)/C=C/c1ccccc1F)c1ccc2c(c1)N(CC1CC1)CCO2 | 7.22 | 
2 | C[C@H](NC(=O)/C=C/c1ccccc1Cl)c1ccc2c(c1)OCO2 |  | 7.70
3 | C[C@H](NC(=O)/C=C/c1c(F)cccc1F)c1ccc2c(c1)CCO2 | 6.48 | 
4 | C[C@H](NC(=O)/C=C/c1ccccc1)c1cccc(N2CCOCC2)c1 | 5.49 | 
5 | C[C@H](NC(=O)/C=C/c1ccccc1F)c1ccc2c(c1)CCN2 | 6.37 | 
6 | C[C@H](NC(=O)/C=C/c1ccccc1Cl)c1ccc2c(c1)OCO2 (racemic) |  | 7.15
7 | CCOC(=O)Nc1ccc(NCc2ccc(F)cc2)cc1N [EZOGABINE] | 5.89 | 
